Relative viability data for six cell lines are collected here from the supplement of paper PMC10307832.

Common to all, as to experiment: relative viability (nuclei count vs DMSO), 5 days (fraction); higher = more cells survive
Compound in the assay “Seliciclib + Crizotinib”: CC[C@H](CO)Nc1nc(NCc2ccccc2)c2ncn(C(C)C)c2n1 [Seliciclib] + C[C@@H](Oc1cc(-c2cnn(C3CCNCC3)c2)cnc1N)c1c(Cl)ccc(F)c1Cl [Crizotinib] (partner 1 µM)
Summed up:
(§1)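 For relative viability, nuclei counts in treated wells were divided by those in vehicle wells. Lung cancer cell lines had been pin-tool dosed in 1536-well plates the day after seeding and cultured for 5 days, then fixed and stained in one step (final 0.05% Triton X-100, 1% formaldehyde, 1 ug/ml Hoechst) and imaged at 4×. Doses were one drug alone or a fixed anchor-drug dose plus five library-drug doses (not always all listed) in √10 steps, and values are duplicate-plate medians.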

Compound in the assay “Seliciclib + Palbociclib”: CC[C@H](CO)Nc1nc(NCc2ccccc2)c2ncn(C(C)C)c2n1 [Seliciclib] + CC(=O)c1c(C)c2cnc(Nc3ccc(N4CCNCC4)cn3)nc2n(C2CCCC2)c1=O [Palbociclib] (partner 0.5 µM)
Put shortly:
as §1

Compound in the assay “Seliciclib + AZD7762”: CC[C@H](CO)Nc1nc(NCc2ccccc2)c2ncn(C(C)C)c2n1 [Seliciclib] + NC(=O)Nc1cc(-c2cccc(F)c2)sc1C(=O)N[C@H]1CCCNC1 [AZD7762] (partner 0.2 µM)
Summed up:
as §1

Compound in the assay “Seliciclib + Vorinostat”: CC[C@H](CO)Nc1nc(NCc2ccccc2)c2ncn(C(C)C)c2n1 [Seliciclib] + O=C(CCCCCCC(=O)Nc1ccccc1)NO [Vorinostat] (partner 1 µM)
Summed up: as §1

On to NCI-H1792, for which the relative viability in the assay with Seliciclib + Crizotinib (first compound 0.08 µM) is 0.837; with Seliciclib + Crizotinib (first compound 0.253 µM), 1.01; with Seliciclib + Crizotinib (first compound 0.8 µM), 0.82; in the assay with Seliciclib + Crizotinib (first compound 2.53 µM), 0.873; in the assay with Seliciclib + Crizotinib (first compound 8 µM), 0.919; in the assay with Seliciclib + Palbociclib (first compound 0.08 µM), 0.655. Also, the relative viability came out at 0.717 with Seliciclib + Palbociclib (first compound 0.253 µM); 0.613 in the assay with Seliciclib + Palbociclib (first compound 0.8 µM); 0.566 with Seliciclib + Palbociclib (first compound 8 µM); 0.897 with Seliciclib + AZD7762 (first compound 0.08 µM); 0.57 with Seliciclib + AZD7762 (first compound 0.253 µM); 0.567 with Seliciclib + AZD7762 (first compound 0.8 µM). The relative viability in the assay with Seliciclib + AZD7762 (first compound 8 µM) came to 0.736.

In the case of NCI-H1793, the relative viability with Seliciclib + Palbociclib (first compound 0.08 µM) amounted to 0.28; in the assay with Seliciclib + Palbociclib (first compound 0.253 µM), 0.258; with Seliciclib + Palbociclib (first compound 0.8 µM), 0.289; with Seliciclib + Palbociclib (first compound 2.53 µM), 0.289; with Seliciclib + Palbociclib (first compound 8 µM), 0.224; with Seliciclib + AZD7762 (first compound 0.08 µM), 0.51. The relative viability with Seliciclib + AZD7762 (first compound 0.253 µM) was 0.45; with Seliciclib + AZD7762 (first compound 0.8 µM), 0.547; in the assay with Seliciclib + AZD7762 (first compound 2.53 µM) it was 0.792; with Seliciclib + AZD7762 (first compound 8 µM), 1.09; in the assay with Seliciclib + Vorinostat (first compound 0.08 µM) it was 0.707; with Seliciclib + Vorinostat (first compound 0.253 µM), 0.718. For the same cell line, the relative viability in the assay with Seliciclib + Vorinostat (first compound 0.8 µM) was found to be 0.59; with Seliciclib + Vorinostat (first compound 2.53 µM), 0.716; with Seliciclib + Vorinostat (first compound 8 µM), 0.439.

NCI-H2009: the relative viability was found to be 1.04 with Seliciclib + Crizotinib (first compound 0.08 µM); 0.963 with Seliciclib + Crizotinib (first compound 0.253 µM); 1.06 in the assay with Seliciclib + Crizotinib (first compound 0.8 µM); 0.987 with Seliciclib + Crizotinib (first compound 2.53 µM); 0.989 with Seliciclib + Crizotinib (first compound 8 µM); 0.202 in the assay with Seliciclib + Palbociclib (first compound 0.08 µM). Also, the relative viability was determined as 0.0934 with Seliciclib + Palbociclib (first compound 0.253 µM); 0.162 with Seliciclib + Palbociclib (first compound 0.8 µM); 0.155 in the assay with Seliciclib + Palbociclib (first compound 2.53 µM); 0.161 with Seliciclib + Palbociclib (first compound 8 µM); 0.742 in the assay with Seliciclib + Vorinostat (first compound 0.08 µM); 0.862 in the assay with Seliciclib + Vorinostat (first compound 0.253 µM). For the same cell line, the relative viability with Seliciclib + Vorinostat (first compound 0.8 µM) came out at 0.753; with Seliciclib + Vorinostat (first compound 2.53 µM), 0.687; with Seliciclib + Vorinostat (first compound 8 µM), 0.671.

Regarding NCI-H2023, the relative viability with Seliciclib + Crizotinib (first compound 0.08 µM) was 0.554; in the assay with Seliciclib + Crizotinib (first compound 0.253 µM), 0.578; with Seliciclib + Crizotinib (first compound 0.8 µM) it was 0.682; in the assay with Seliciclib + Crizotinib (first compound 2.53 µM), 0.595; with Seliciclib + Crizotinib (first compound 8 µM) it was 0.555; in the assay with Seliciclib + Palbociclib (first compound 0.08 µM), 0.366. In addition, the relative viability in the assay with Seliciclib + Palbociclib (first compound 0.253 µM) was found to be 0.324; in the assay with Seliciclib + Palbociclib (first compound 0.8 µM) it was 0.295; with Seliciclib + Palbociclib (first compound 2.53 µM), 0.183; in the assay with Seliciclib + Palbociclib (first compound 8 µM), 0.159; with Seliciclib + Vorinostat (first compound 0.08 µM), 0.641; in the assay with Seliciclib + Vorinostat (first compound 0.253 µM), 0.736. The relative viability in the assay with Seliciclib + Vorinostat (first compound 0.8 µM) turned out to be 0.649; in the assay with Seliciclib + Vorinostat (first compound 2.53 µM) it was 0.5; with Seliciclib + Vorinostat (first compound 8 µM), 0.43.

In the case of NCI-H2228, the relative viability in the assay with Seliciclib + Crizotinib (first compound 0.08 µM) is 0.505; with Seliciclib + Crizotinib (first compound 0.253 µM) it was 0.414; with Seliciclib + Crizotinib (first compound 0.8 µM) it was 0.383; in the assay with Seliciclib + Crizotinib (first compound 2.53 µM), 0.672; with Seliciclib + Crizotinib (first compound 8 µM) it was 0.396; with Seliciclib + Palbociclib (first compound 0.08 µM), 0.851. Besides, the relative viability in the assay with Seliciclib + Palbociclib (first compound 0.253 µM) is 0.617; in the assay with Seliciclib + Palbociclib (first compound 0.8 µM), 0.714; with Seliciclib + Palbociclib (first compound 2.53 µM), 0.86; with Seliciclib + Palbociclib (first compound 8 µM), 0.507; with Seliciclib + Vorinostat (first compound 0.08 µM) it was 0.585; with Seliciclib + Vorinostat (first compound 0.253 µM) it was 0.521. In addition, the relative viability with Seliciclib + Vorinostat (first compound 0.8 µM) came out at 0.58; in the assay with Seliciclib + Vorinostat (first compound 2.53 µM), 0.586; in the assay with Seliciclib + Vorinostat (first compound 8 µM) it was 0.335.

On to NCI-H2342, for which the relative viability came out at 0.63 in the assay with Seliciclib + Palbociclib (first compound 0.08 µM); 0.477 with Seliciclib + Palbociclib (first compound 0.253 µM); 0.539 with Seliciclib + Palbociclib (first compound 0.8 µM); 0.524 with Seliciclib + Palbociclib (first compound 2.53 µM); 0.492 with Seliciclib + Palbociclib (first compound 8 µM); 0.565 with Seliciclib + AZD7762 (first compound 0.08 µM). In addition, the relative viability came to 0.509 with Seliciclib + AZD7762 (first compound 0.253 µM); 0.486 with Seliciclib + AZD7762 (first compound 0.8 µM); 0.404 with Seliciclib + AZD7762 (first compound 2.53 µM); 0.427 in the assay with Seliciclib + AZD7762 (first compound 8 µM); 0.792 with Seliciclib + Vorinostat (first compound 0.08 µM); 0.753 with Seliciclib + Vorinostat (first compound 0.253 µM). Also, the relative viability in the assay with Seliciclib + Vorinostat (first compound 0.8 µM) is 0.706; with Seliciclib + Vorinostat (first compound 2.53 µM), 0.663; in the assay with Seliciclib + Vorinostat (first compound 8 µM), 0.705.
